This assay concerns the target T1, KCNQ2 (Homo sapiens, UniProt O43526).
T1 construct: WT KCNQ2 homotetrameric channel expressed in CHO cells
Briefly: whole-cell voltage clamp in transfected CHO cells, concentration-response of outward current potentiation. The class given is cell-based.

T1 sequence (O43526 whole entry): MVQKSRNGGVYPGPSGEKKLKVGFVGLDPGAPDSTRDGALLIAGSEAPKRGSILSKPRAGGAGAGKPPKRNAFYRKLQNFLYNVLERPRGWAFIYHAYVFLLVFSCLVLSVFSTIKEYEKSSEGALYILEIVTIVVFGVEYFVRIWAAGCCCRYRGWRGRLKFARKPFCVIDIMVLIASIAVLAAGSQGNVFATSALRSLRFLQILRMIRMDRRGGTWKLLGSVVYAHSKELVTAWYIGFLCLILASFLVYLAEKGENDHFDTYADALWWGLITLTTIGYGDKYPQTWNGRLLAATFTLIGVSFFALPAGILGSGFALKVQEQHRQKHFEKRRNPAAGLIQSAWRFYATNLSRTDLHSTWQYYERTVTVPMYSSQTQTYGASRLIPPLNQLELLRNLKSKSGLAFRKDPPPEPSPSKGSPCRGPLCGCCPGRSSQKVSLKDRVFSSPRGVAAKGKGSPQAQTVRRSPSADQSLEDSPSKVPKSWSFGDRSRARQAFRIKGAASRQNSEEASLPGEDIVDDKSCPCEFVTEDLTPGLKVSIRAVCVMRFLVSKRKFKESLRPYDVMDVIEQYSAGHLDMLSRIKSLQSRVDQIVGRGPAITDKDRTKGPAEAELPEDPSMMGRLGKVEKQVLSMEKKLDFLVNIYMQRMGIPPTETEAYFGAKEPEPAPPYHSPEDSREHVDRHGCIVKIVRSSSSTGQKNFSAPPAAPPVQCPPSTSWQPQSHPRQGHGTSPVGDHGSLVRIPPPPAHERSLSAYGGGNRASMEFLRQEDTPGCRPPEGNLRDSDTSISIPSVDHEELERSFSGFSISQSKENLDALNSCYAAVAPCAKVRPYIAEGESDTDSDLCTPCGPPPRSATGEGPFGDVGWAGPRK

For `O=C(Nc1ccc(Cl)nc1)c1ccc(F)cc1` [ztz240, N-(6-chloro-pyridin-3-yl)-4-fluorobenzamide], the concentration giving a half-maximal response (EC50) was about 5.8 µM.

As a reminder, the EC50 is the concentration needed to bring the measured effect to its halfway point.

Source of the values: paper PMC5855359, “A Statistical Thermodynamic Model for Ligands Interacting With Ion Channels: Theoretical Model and Experimental Validation of the KCNQ2 Channel” (Frontiers in Pharmacology, 2018).
